From patent US6486185B1, “3-heteroarylidene-2-indolinone protein kinase inhibitors” (Sugen, Inc., priority 1997, dated 2002)
pIC50: −log10 of the molar value.

target: T1, FLK-1R (Mus musculus, UniProt P35918); assay: FLK-1 receptor ELISA in cells engineered to express Flk-1; type: cell-based; details: 50% inhibition of PTK activity over control
T1 construct: expressed in transfected cells; host or cells: NIH3T3 C7#3
Method: The cellular/catalytic assays described herein are performed in an ELISA format. The general procedure is a follows: a compound is introduced to cells expressing the test kinase, either naturally or recombinantly, for some period of time after which, if the test kinase is a receptor, a ligand known to activate the receptor's activity is added. The cells are lysed and the lysate is transferred to the wells of an ELISA plate previously coated with a specific antibody recognizing the substrate of the enzymatic phosphorylation reaction. Non-substrate components of the cell lysate are washed away and the amount of phosphorylation on the substrate is detected with an antibody specifically recognizing phosphotyrosine compared with control cells that were not contacted with a test compound.
An ELISA assay is conducted to measure the kinase activity of the FLK-1 receptor and more specifically, the inhibition or activation of TK activity on the FLK-1 receptor. Specifically, the following assay can be conducted to measure kinase activity of the FLK-1 receptor in cells genetically engineered to express Flk-1.
The following reagents and supplies are used:
a. Corning 96-well ELISA plates (Corning Catalog No. 25805-96);
b. Cappel goat anti-rabbit IgG (catalog no. 55641);
c. PBS (Gibco Catalog No. 450-1300EB);
d. TBSW Buffer (50 mM Tris (pH 7.2), 150 mM NaCl and 0.1% Tween-20);
e. Ethanolamine stock (10% ethanolamine (pH 7.0), stored at 4° C.);
f. HNTG buffer (20 mM HEPES buffer (pH 7.5), 150 mM NaCl, 0.2% Triton X-100, and 10% glycerol);
g. EDTA (0.5 M (pH 7.0) as a 100×stock);
h. Sodium orthovanadate (0.5 M as a 100×stock);
i. Sodium pyrophosphate (0.2 M as a 100×stock);
j. NUNC 96 well V bottom polypropylene plates (Applied Scientific Catalog No. AS-72092);
k. NIH3T3 C7#3 Cells (FLK-1 expressing cells)
l. DMEM with 1×high glucose L-Glutamine (catalog No. 11965-050);
n. L-glutamine, Gibco (catalog no. 25030-016);
o. VEGF, PeproTech, Inc. (catalog no. 100-20) (kept as 1 μg/100 μL stock in Milli-Q dH2O and stored at −20° C.;
p. Affinity purified anti-FLK-1 antiserum;
q. UB40 monoclonal antibody specific for phosphotyrosine (see, Fendley, et al., 1990, Cancer Research 50:1550-1558);
r. EIA grade Goat anti-mouse IgG-POD (BioRad catalog no. 172-1011);
s. 2,2-azino-bis(3-ethylbenz-thiazoline-6-sulfonic acid (ABTS) solution (100 mM citric acid (anhydrous), 250 mM Na2HPO4 (pH 4.0), 0.5 mg/mL ABTS (Sigma catalog no. A-1888)), solution should be stored in dark at 4° C. until ready for use;
t. H2O2 (30% solution) (Fisher catalog no. H325);
u. ABTS/H2O2 (15 mL ABTS solution, 2 μL H2O2) prepared 5 minutes before use and left at room temperature;
v. 0.2 M HCl stock in H2O;
w. dimethylsulfoxide (100%)(Sigma Catalog No. D-8418); and
y. Trypsin-EDTA (Gibco BRL Catalog No. 25200-049).
The following protocol can be used for conducting the assay:
1. Coat Corning 96-well ELISA plates with 1.0 μg per well Cappel Anti-rabbit IgG antibody in 0.1 M Na2CO3 pH 9.6. Bring final volume to 150 μL per well. Coat plates overnight at 4° C. Plates can be kept up to two weeks when stored at 4° C.
2. Grow cells in Growth media(DMEM, supplemented with 2.0 mM L-Glutamine, 10% FBS) in suitable culture dishes until confluent at 37° C., 5% CO2.
3. Harvest cells by trypsinization and seed in Corning 25850 polystyrene 96-well round bottom cell plates, 25.000 cells/well in 200 μL of growth media.
4. Grow cells at least one day at 37° C., 5% CO2.
5. Wash cells with D-PBS 1×.
6. Add 200 μL/well of starvation media (DMEM, 2.0 mM 1-Glutamine, 0.1% FBS). Incubate overnight at 37° C., 5% CO2.
7. Dilute Compounds 1:20 in polypropylene 96 well plates using starvation media. Dilute dimethylsulfoxide 1:20 for use in control wells.
8. Remove starvation media from 96 well cell culture plates and add 162 μL of fresh starvation media to each well.
9. […]

T1 sequence (P35918 20-1345): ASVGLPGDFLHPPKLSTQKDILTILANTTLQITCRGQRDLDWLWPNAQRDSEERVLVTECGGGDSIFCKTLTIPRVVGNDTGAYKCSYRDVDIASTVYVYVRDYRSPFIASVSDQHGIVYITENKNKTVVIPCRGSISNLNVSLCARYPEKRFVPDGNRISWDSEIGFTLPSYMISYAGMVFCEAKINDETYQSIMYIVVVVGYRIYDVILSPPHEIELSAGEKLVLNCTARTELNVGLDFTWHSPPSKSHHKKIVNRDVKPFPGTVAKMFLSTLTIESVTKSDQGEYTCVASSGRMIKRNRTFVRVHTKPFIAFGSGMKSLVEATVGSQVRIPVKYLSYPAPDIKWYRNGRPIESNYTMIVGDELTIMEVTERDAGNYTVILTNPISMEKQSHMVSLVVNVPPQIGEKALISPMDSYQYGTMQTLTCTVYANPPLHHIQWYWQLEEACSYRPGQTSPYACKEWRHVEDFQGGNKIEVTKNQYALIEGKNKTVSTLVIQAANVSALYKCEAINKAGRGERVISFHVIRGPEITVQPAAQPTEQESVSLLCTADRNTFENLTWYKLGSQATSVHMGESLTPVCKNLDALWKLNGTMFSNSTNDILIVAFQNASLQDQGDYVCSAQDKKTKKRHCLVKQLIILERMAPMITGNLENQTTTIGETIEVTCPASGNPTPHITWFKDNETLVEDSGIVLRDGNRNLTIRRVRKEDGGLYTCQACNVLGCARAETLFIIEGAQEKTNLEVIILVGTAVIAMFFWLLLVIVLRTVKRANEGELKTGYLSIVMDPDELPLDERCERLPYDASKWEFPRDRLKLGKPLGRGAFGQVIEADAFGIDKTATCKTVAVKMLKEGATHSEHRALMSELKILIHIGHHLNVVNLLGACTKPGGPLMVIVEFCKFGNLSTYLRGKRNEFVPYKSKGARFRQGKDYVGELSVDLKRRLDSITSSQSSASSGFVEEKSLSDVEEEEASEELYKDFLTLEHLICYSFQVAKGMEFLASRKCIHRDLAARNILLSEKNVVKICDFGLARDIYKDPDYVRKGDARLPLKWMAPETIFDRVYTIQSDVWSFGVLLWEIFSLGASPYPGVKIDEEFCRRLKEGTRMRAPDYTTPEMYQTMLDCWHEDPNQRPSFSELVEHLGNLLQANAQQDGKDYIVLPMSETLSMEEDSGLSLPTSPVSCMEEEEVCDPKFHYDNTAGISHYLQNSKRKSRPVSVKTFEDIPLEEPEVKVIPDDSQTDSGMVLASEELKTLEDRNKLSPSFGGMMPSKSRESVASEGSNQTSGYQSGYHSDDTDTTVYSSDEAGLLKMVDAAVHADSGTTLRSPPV

Compound	pIC50
CCOC(=O)c1c(C)[nH]c(C=C2C(=O)Nc3ccc(Br)cc32)c1C [3-(2,4-dimethyl-3-ethoxycarbonylpyrrol-5-methylidenyl)-5-bromo-2-indolinone]	5.38
COC(=O)CCc1c[nH]c(C=C2C(=O)Nc3cc(OC)c(OC)cc32)c1C [3-[4-(2-methoxycarbonylethyl)-3-methylpyrrol-2-methylidenyl]-5,6-dimethoxy-2-indolinone]	4.44
CCOC(=O)c1c[nH]c(C=C2C(=O)Nc3ccccc32)c1C [3-(4-ethoxycarbonyl-3-methylpyrrol-2-methylidenyl)-2-indolinone]	6.70
CCOC(=O)CCc1c(C(=O)OCC)[nH]c(C=C2C(=O)Nc3ccccc32)c1CC(=O)OCC [3-[2-ethoxycarbonyl-3-(2-ethoxycarbonylethyl)-4-ethoxycarbonylmethyl)pyrrol-5-methylidenyl)-2-indolinone]	< 5.00
CCOC(=O)c1[nH]c(C=C2C(=O)Nc3ccccc32)c(C(C)=O)c1C [3-(4-acetyl-2-ethoxycarbonyl-3-methylpyrrol-5-methylidenyl)-2-indolinone]	< 5.00
CC(=O)c1[nH]c(C=C2C(=O)Nc3ccccc32)c(C)c1C [3-(2-acetyl-3,4-dimethylpyrrol-5-methylidenyl)-2-indolinone]	4.62
CCOC(=O)c1c(C)[nH]c(C=C2C(=O)Nc3ccc(NC(=O)c4ccc(C(=O)OC)cc4)cc32)c1C [3-(2,4-dimethyl-3-ethoxycarbonylpyrrol-5-methylidenyl)-5-(4-methoxycarbonylbenzamido)-2-indolinone]	< 5.00
COC(=O)Cc1c(Cl)[nH]c(C=C2C(=O)Nc3ccccc32)c1C(=O)OC [3-(2-chloro-4-methoxycarbonyl-3-methoxycarbonylmethylpyrrol-5-methylidenyl)-2-indolinone]	< 4.30
COC(=O)CCc1c[nH]c(C=C2C(=O)Nc3ccccc32)c1C [3-[4-(2-methoxycarbonylethyl-3-methylpyrrol-2-methylidenyl]-2-indolinone]	5.96
Cc1c[nH]c(C=C2C(=O)Nc3ccccc32)c1CCC(=O)O [3-[3-(2-carboxyethyl-4-methylpyrrol-2-methylidenyl]-2-indolinone]	6.40
